14 compounds from US9409952B2, “Peptide-compound cyclization method” (Chugai Seiyaku Kabushiki Kaisha, priority 2011, dated 2016) can be followed below.

Read-outs that look alike come from different tables or passages of the source. Starred links: 1 amine or outer side, 2 acyl side, 3 side chain; linkers in the order of their positions; H or OH if unused. Non-standard residues stand in square brackets, D forms with d. Residues, ends and D or L forms follow the SMILES beside them. *: point of attachment. Phe(4-CF3) = N[C@@H](Cc1ccc(C(F)(F)F)cc1)C(=O)O; NMeF = CN[C@@H](Cc1ccccc1)C(=O)O; NMeGABA = CN(CCCC(=O)[*:2])[*:1]; NMeI = CC[C@H](C)[C@H](NC)C(=O)O; NMeβAla = CN(CCC(=O)[*:2])[*:1]; Aoc(2) = CCCCCC[C@H](N)C(=O)O; NMeL = CN[C@@H](CC(C)C)C(=O)O; NMeV = CN[C@H](C(=O)O)C(C)C; NMeA = CN[C@@H](C)C(=O)O; dNMeA = CN[C@H](C)C(=O)O; β3hA = C[C@H](N)CC(=O)O; Sar = CNCC(=O)O; tBu = CC(C)(C)*

Series [1] can be described thus: Metabolic stability in human hepatic microsome. As to conditions: microsomes. In kind it is in vitro ADME.
Series [2] is described as follows: PAMPA (parallel artificial membrane permeability assay). The format is in vitro ADME. To be noted: PAMPA. The procedure, abridged:
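Artificial membrane was 10% (w/v) egg lecithin plus 0.5% (w/v) cholesterol in dodecane on a PVDF filter. A 10 mM DMSO stock was added at 0.5% (v/v) to donor buffer (50 mM MOPSO, pH 6.5, 5.0% glycocholic acid). After 18 h at 37 °C, LC/MS or LC/UV gave donor and acceptor levels for Pe.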
(In PAMPA a lipid-coated filter parts donor from acceptor wells.)

Setting [3] is: pH 7.4, human hepatic microsome, NADPH(+), read-out: CL NADPH(+).
The mark [4] stands for this setting: membrane permeation rate (Pe), 50 mM MOPSO buffer pH 6.5 with 5.0% glycocholic acid, 37° C., 18 hours, read-out: iPAMPA Pe.

As for `CC(C)C[C@@H]1NC(=O)[C@H](CC(C)C)N(C)C(=O)[C@H](C)NC(=O)[C@H](C(C)C)N(C)C(=O)[C@H](Cc2ccccc2)NC(=O)CN(C)C(=O)[C@H]([C@@H](C)O)NC(=O)[C@H](C)N(C)C(=O)[C@H](CC(C)C)N(C)C(=O)[C@@H](C)NC(=O)C[C@H](C)NC1=O` [DP-764] (cyclo(A[NMeL]L[β3hA][dA][NMeL][NMeA]T[Sar]F[NMeV])), in series [1] (setting [3]), the microsomal CLint at 1 uM is 27 µL/min/mg. For the same compound, the Papp at 18 hours, 50 µM in series [2] (setting [4]) worked out at 5 ×10⁻⁶ cm/s.

In series [1] (human, pH 7.4, CL NADPH(+)), `CC(C)C[C@H]1C(=O)N[C@@H](C)C(=O)N(C)[C@@H](C)C(=O)N[C@@H](C)CC(=O)N(C)[C@@H](C)C(=O)N[C@@H]([C@@H](C)O)C(=O)N(C)CC(=O)N(C)[C@@H](Cc2ccccc2)C(=O)N(C)[C@@H](Cc2ccccc2)C(=O)N(C)[C@@H](C)C(=O)N2CCC[C@H]2C(=O)N1C` [DP-765] (cyclo(A[NMeA][β3hA][NMeA]T[Sar][NMeF][NMeF][NMeA]P[NMeL])) returned a microsomal CLint at 1 uM of 13 µL/min/mg. In addition, in series [2] (pH 6.5), the Papp at 18 hours, 50 µM came out at 3 ×10⁻⁶ cm/s.

As to `CC(C)C[C@H]1C(=O)N(C)[C@@H](C)C(=O)N(C)[C@@H](C)C(=O)N(C)[C@@H](Cc2ccccc2)C(=O)N[C@@H]([C@@H](C)O)C(=O)N(C)[C@@H](Cc2ccccc2)C(=O)N(C)[C@@H](CC(C)C)C(=O)N2CCC[C@H]2C(=O)N[C@@H](C)CC(=O)N[C@@H](C)C(=O)NCC(=O)N1C` [DP-766] (cyclo(AG[NMeL][NMeA][NMeA][NMeF]T[NMeF][NMeL]P[β3hA])), in series [1] (human, pH 7.4, CL NADPH(+)), the microsomal CLint at 1 uM was 54 µL/min/mg. This compound also yielded a Papp at 18 hours, 50 µM in series [2] (pH 6.5) of 13 ×10⁻⁶ cm/s.

`CC[C@H](C)[C@H]1C(=O)N(C)[C@@H](C)C(=O)N(C)[C@@H](Cc2ccccc2)C(=O)N[C@@H]([C@@H](C)O)C(=O)N(C)[C@@H](Cc2ccccc2)C(=O)N(C)[C@@H](CC(C)C)C(=O)N2CCC[C@H]2C(=O)N[C@@H](C)CC(=O)N[C@@H](C)C(=O)NCC(=O)N(C)[C@@H](CC(C)C)C(=O)N1C` [DP-767] (cyclo(AG[NMeL][NMeI][NMeA][NMeF]T[NMeF][NMeL]P[β3hA])) showed a microsomal CLint at 1 uM in series [1] (human, pH 7.4, CL NADPH(+)) of 34 µL/min/mg. Moreover, the Papp at 18 hours, 50 µM in series [2] (pH 6.5) worked out at 30 ×10⁻⁶ cm/s.

Consider `CC(C)C[C@H]1C(=O)N2CCC[C@H]2C(=O)N(C)[C@@H](CC(C)C)C(=O)N[C@@H](C)C(=O)N(C)[C@@H](C(C)C)C(=O)N[C@@H](C)CC(=O)N(C)[C@@H](C)C(=O)N[C@@H]([C@@H](C)O)C(=O)N(C)CC(=O)N(C)[C@@H](Cc2ccccc2)C(=O)N(C)[C@@H](Cc2ccccc2)C(=O)N1C` [DP-768] (cyclo(A[NMeV][β3hA][NMeA]T[Sar][NMeF][NMeF][NMeL]P[NMeL])), for which the microsomal CLint at 1 uM in series [1] (human, pH 7.4, CL NADPH(+)) came out at 34 µL/min/mg. The Papp at 18 hours, 50 µM in series [2] (pH 6.5) stood at 25 ×10⁻⁶ cm/s.

For `CC[C@H](C)[C@@H]1NC(=O)[C@H](C)N(C)C(=O)[C@H]([C@@H](C)O)NC(=O)[C@H](C(C)C)N(C)C(=O)[C@H](CC(C)C)NC(=O)[C@H](CC(C)C)N(C)C(=O)[C@@H](C)N(C)C(=O)C[C@H](C)NC(=O)[C@H](Cc2ccccc2)NC(=O)[C@H](C)NC(=O)[C@H](Cc2ccccc2)N(C)C1=O` [DP-769] (cyclo(AF[β3hA][dNMeA][NMeL]L[NMeV]T[NMeA]I[NMeF])), in series [1] (human, pH 7.4, CL NADPH(+)), the microsomal CLint at 1 uM worked out at 78 µL/min/mg. The compound further returned a Papp at 18 hours, 50 µM in series [2] (pH 6.5) of 53 ×10⁻⁶ cm/s.

`CC[C@H](C)[C@@H]1NC(=O)[C@H](CC(C)C)N(C)C(=O)[C@H](C(C)C)N(C)C(=O)[C@H](C)NC(=O)[C@H](C)N(C)C(=O)[C@H](Cc2ccccc2)NC(=O)[C@H]([C@@H](C)O)NC(=O)[C@H](CC(C)C)N(C)C(=O)[C@H](CC(C)C)N(C)C(=O)[C@H](C)N(C)C(=O)C[C@H](C)NC1=O` [DP-770] (cyclo(A[NMeV][NMeL]I[β3hA][NMeA][NMeL][NMeL]TF[NMeA])) showed a microsomal CLint at 1 uM in series [1] (human, pH 7.4, CL NADPH(+)) of 95 µL/min/mg. In series [2] (pH 6.5), the Papp at 18 hours, 50 µM came to 33 ×10⁻⁶ cm/s.

With `CC[C@H](C)[C@H]1C(=O)N[C@@H](COC(C)(C)C)C(=O)N(C)[C@@H](Cc2ccccc2)C(=O)N(C)[C@@H](C(C)C)C(=O)N[C@@H](C)CC(=O)N(C)[C@@H](C)C(=O)N(C)[C@@H](Cc2ccccc2)C(=O)N[C@@H](CC(C)C)C(=O)N(C)[C@@H](CC(C)C)C(=O)N[C@@H]([C@@H](C)O)C(=O)N(C)CC(=O)N1C` [DP-771] (cyclo(L[NMeL]T[Sar][NMeI]S(tBu)[NMeF][NMeV][β3hA][NMeA][NMeF])), the microsomal CLint at 1 uM in series [1] (human, pH 7.4, CL NADPH(+)) amounted to 228 µL/min/mg. Also, the Papp at 18 hours, 50 µM in series [2] (pH 6.5) turned out to be 47 ×10⁻⁶ cm/s.

In series [1] (human, pH 7.4, CL NADPH(+)), `CC[C@H](C)[C@H]1C(=O)N(C)[C@@H](CC(C)C)C(=O)N[C@@H](C)C(=O)N(C)[C@@H](CC(C)C)C(=O)N(C)[C@@H](Cc2ccccc2)C(=O)N[C@@H]([C@@H](C)O)C(=O)N(C)[C@@H](Cc2ccccc2)C(=O)N(C)[C@@H](CC(C)C)C(=O)N(C)[C@@H](C)C(=O)N[C@@H](C)CC(=O)N[C@H](C(C)C)C(=O)N1C` [DP-773] (cyclo(A[NMeL][NMeF]T[NMeF][NMeL][NMeA][β3hA][dV][NMeI][NMeL])) showed a microsomal CLint at 1 uM of 17 µL/min/mg. In series [2] (pH 6.5), this compound yielded a Papp at 18 hours, 50 µM of 46 ×10⁻⁶ cm/s.

Regarding `CCCCCC[C@@H]1NC(=O)[C@H](CC(C)C)N(C)C(=O)[C@@H]2CCCN2C(=O)[C@H](C)N(C)C(=O)[C@H](Cc2ccccc2)N(C)C(=O)[C@H](Cc2ccccc2)N(C)C(=O)CN(C)C(=O)[C@H]([C@@H](C)O)NC(=O)[C@H](C)N(C)C(=O)C[C@H](C)NC(=O)[C@H](C(C)C)N(C)C1=O` [DP-774] (cyclo([Aoc(2)][NMeV][β3hA][NMeA]T[Sar][NMeF][NMeF][NMeA]P[NMeL])), the microsomal CLint at 1 uM in series [1] (human, pH 7.4, CL NADPH(+)) was 71 µL/min/mg. Further, the Papp at 18 hours, 50 µM in series [2] (pH 6.5) is 26 ×10⁻⁶ cm/s.

For the compound `CCCCCC[C@@H]1NC(=O)[C@H](Cc2ccccc2)N(C)C(=O)[C@H](C)N(C)C(=O)C[C@H](C)NC(=O)[C@H](C(C)C)N(C)C(=O)[C@H](Cc2ccccc2)N(C)C(=O)[C@H](COC(C)(C)C)NC(=O)[C@H](C)N(C)C(=O)CN(C)C(=O)[C@H]([C@@H](C)O)NC(=O)[C@H](CC(C)C)N(C)C1=O` [DP-775] (cyclo([Aoc(2)][NMeL]T[Sar][NMeA]S(tBu)[NMeF][NMeV][β3hA][NMeA][NMeF])), the microsomal CLint at 1 uM in series [1] (human, pH 7.4, CL NADPH(+)) came out at 119 µL/min/mg. Further, the Papp at 18 hours, 50 µM in series [2] (pH 6.5) was found to be 37 ×10⁻⁶ cm/s.

`CC[C@H](C)[C@@H]1NC(=O)[C@H](CC(C)C)N(C)C(=O)[C@H](CC(C)C)N(C)C(=O)[C@H](C)NC(=O)[C@H](CC(C)C)N(C)C(=O)[C@H](Cc2ccc(C(F)(F)F)cc2)NC(=O)[C@H]([C@@H](C)O)NC(=O)[C@H](CC(C)C)N(C)C(=O)[C@H](CC(C)C)N(C)C(=O)[C@H](C)N(C)C(=O)C[C@H](C)NC1=O` [DP-776] (cyclo(A[NMeL][NMeL]I[β3hA][NMeA][NMeL][NMeL]T[Phe(4-CF3)][NMeL])) came in with a microsomal CLint at 1 uM in series [1] (human, pH 7.4, CL NADPH(+)) of 44 µL/min/mg. Also, in series [2] (pH 6.5), the Papp at 18 hours, 50 µM was 18 ×10⁻⁶ cm/s.

For the compound `CC(C)C[C@H]1C(=O)N(C)[C@@H](CC(C)C)C(=O)N[C@@H]([C@@H](C)O)C(=O)N(C)[C@@H](Cc2ccccc2)C(=O)NCC(=O)N(C)[C@@H](C(C)C)C(=O)N[C@@H](Cc2ccccc2)C(=O)N[C@@H](C)CC(=O)N(C)CCC(=O)N[C@@H](COC(C)(C)C)C(=O)N1C` [DP-777] (cyclo(F[β3hA][NMeβAla]S(tBu)[NMeL][NMeL]T[NMeF]G[NMeV])), the microsomal CLint at 1 uM in series [1] (setting [3]) stood at 428 µL/min/mg. The Papp at 18 hours, 50 µM in series [2] (setting [4]) turned out to be 39 ×10⁻⁶ cm/s.

As for `CC[C@H](C)[C@@H]1NC(=O)[C@H](CC(C)C)N(C)C(=O)[C@H](C)NC(=O)CCCN(C)C(=O)C[C@H](C)NC(=O)[C@H]([C@@H](C)O)NC(=O)[C@H](Cc2ccccc2)NC(=O)[C@H](C(C)C)N(C)C(=O)[C@H](C)N(C)C(=O)[C@H](Cc2ccccc2)N(C)C1=O` [DP-778] (cyclo(A[NMeL]I[NMeF][NMeA][NMeV]FT[β3hA][NMeGABA])), in series [1] (human, pH 7.4, CL NADPH(+)), the microsomal CLint at 1 uM came out at 139 µL/min/mg. In series [2] (pH 6.5), the Papp at 18 hours, 50 µM came out at 26 ×10⁻⁶ cm/s.
